Here are results for five molecules from patent publication US6374907B1, “Hydrofluoroether as a heat-transfer fluid” (3M Innovative Properties Company, priority 1999, dated 2002).

Holding throughout (type): physicochemical
Data set [1] can be described thus: Physical properties of the fluids (boiling point, gel temperature, pour point). As to conditions: for boiling point: ambient / atmospheric pressure. An excerpt:
The pumping power calculation was made for various fluorinated fluids and is presented in TABLE 5, along with various physical properties of the fluids.

Data set [2] is described as follows: Freezing or pour point measurement. The following applies: 1 ml sample cooled with liquid nitrogen; for pour point: transparent glassy solid. The protocol: Freezing or pour points were measured for 3 related hydrofluoroether samples:
The freeze and or pour points were measured by cooling a 1 ml sample contained in a double walled glass tube. The outer tube was sealed at both ends and had side ports for the addition of nitrogen gas. The inner tube was sealed at one end. The annular space between the tubes was purged with dry nitrogen and sealed. The sample was introduced into the inner tube and sealed with a septum. The temperature of the sample contained in the inner tube was monitored with an Omega Model DP-41 (available from Omega Engineering, Inc., Stamford, Conn.) resistance thermal device inserted into the fluid. The apparatus was lowered into the dewar flask of liquid nitrogen.
If the material froze to a white solid, a freezing point is reported. If instead the material became a transparent glassy solid, a pour point is reported.
The resistance thermal device was not calibrated at temperatures less than −100° C.

The nature of data set [3]: Liquid density, Anton-Parr densitometer. As for the experimental part:
The liquid density of n-C3F7CF(OC2H5)CF(CF3)2 was measured from 10° C. to 90° C. using an Anton-Parr Model DMA58 densitometer with a DMA602 external cell. Densities below this temperature were obtained by linear extrapolation of the available data.

Data set [4] can be described thus: Specific heat by differential scanning calorimetry (ASTM E 1269-90). The protocol:
The specific heat of n-C3F7CF(OC2H5)CF(CF3)2 was measured by differential scanning calorimetry according to ASTME 1269-90 over a temperature range of −50° C. to 50° C.

Data set [5] is described as follows: Kinematic viscosity, Cannon-Fenske viscometer. As for the experimental part: The kinematic viscosity of n-C3F7CF(OC2H5)CF(CF3)2 was measured using a Cannon-Fenske viscometer over the temperature range −80° C. to 23° C. Data were regressed using methods outlined in ASTM Standard D 341-77.
Data set [6] in a line: Distillation curve, head temperature vs. percent boiled. As to conditions: until over 95% of the fluid had boiled over. As for the experimental part:
H-GALDEN™ ZT-130 fluid (199 grams) was distilled from a 250 mL boiling flask using a 12 inch (30 cm) downward slanting shell-in-tube condenser into another 250 mL receiver flask. The weight of the fluid captured by the receiver was continuously monitored using an Ohaus Model TP4000D digital balance (available from Ohaus Corp., Florham Park, N.J.). The head temperature of the distillation apparatus was monitored using a type-J thermocouple. Both weight and temperature measurements were recorded using a LABVIEW SCXI automated data acquisition system (available from National Instruments Corp., Austin, Tex.) at regular intervals during the course of the distillation, which took 20.9 minutes.
The same experiment was repeated except that 211.9 g of n-C3F7CF(OC2H5)CF(CF3)2 was used in place of the H-GALDEN™ ZT-130 fluid and the distillation took place over an 11.5 minute time interval.
Thus, better temperature and viscosity control is possible when the n-C3F7CF(OC2H5)CF(CF3)2 is employed as a wide temperature range heat-transfer fluid.

Data set [7] is described as follows: Thermal conductivity, transient hot-wire cell (ASTM D 2717-86). The following applies: value used in place of n-C3F7CF(OC2H5)CF(CF3)2. As for the experimental part:
The thermal conductivity of n-C3F7CF(OC2H5)CF(CF3)2 was not measured. Instead, experimentally-determined values for the hydrofluoroether C4F9OC2H5 were used. These values were determined using a transient, hot-wire thermal conductivity cell over the temperature range of −50° C. to +50° C., according to ASTM D 2717-86. A platinum wire was used in the measurements. […] The thermal conductivity at 25° C. was 0.066 W/m° C.

As to `FC(F)(F)C(F)(F)C(F)(F)N(C(F)(F)C(F)(F)C(F)(F)F)C(F)(F)C(F)(F)C(F)(F)F` [FC-3283, perfluoro(tripropylamine)], in data set [1], the Gel temp was −50 °C, the “Initial Boiling point” value was 130 °C, the pour point is −50 °C and the boiling point (usually the temperature of boiling at a given pressure) was “about 130 °C”.

As to `CCOC(F)(C(F)(F)C(F)(F)F)C(F)(C(F)(F)F)C(F)(F)F` (stereo not drawn) [n-C2F5CF(OC2H5)CF(CF3)2], the freeze point in data set [2] (froze to a white solid) is −70 °C.

On to `CCOC(F)(C(F)(F)C(F)(F)C(F)(F)F)C(F)(C(F)(F)F)C(F)(F)F` (stereo not drawn) [n-C3F7CF(OC2H5)CF(CF3)2, 3-ethoxy-perfluoro(2-methylhexane)], for which the “Liquid Density at 25° C.” value in data set [3] was determined as 1614 kg/m^3. Besides, the “Specific Heat at 25° C.” value in data set [4] is recorded as 1128 J/kg° C. Besides, in data set [5], the “Kinematic Viscosity at 25° C.” value is reported as 0.77 centistokes. Moreover, in data set [1], the Gel temp was −100 °C, the “Initial Boiling point” value was found to be 128 °C and the boiling point is 128 °C. The pour point result in data set [2] was “less than −100 °C”. In data set [6], the “change of boiling point during distillation” value was “remained unchanged”.

As to `CCOC(F)(C(F)(F)C(F)(F)C(F)(F)C(F)(F)F)C(F)(C(F)(F)F)C(F)(F)F` (stereo not drawn) [n-C4F9CF(OC2H5)CF(CF3)2], in data set [2], the pour point is −83 °C.

For the molecule C4F9OC2H5, in data set [7], the “thermal conductivity at 25° C.” value came out at 0.066 W/m° C.
